Common to all, as to assay type: functional, cell-based
The test system of one experiment is HeLa. In words: Cytotoxicity against human HeLa cells after 72 hrs by resazurin assay. (In general: The colour change of resazurin is a common sign of viable cells or microbes.)
A further experiment relates to MCF7. The experiment can be described thus: Cytotoxicity against human MCF7 cells after 72 hrs by resazurin assay.
A further experiment relates to MIA PaCa-2. In words: Cytotoxicity against human MIAPaCa2 cells after 72 hrs by resazurin assay.

For orientation: IC50 means the concentration needed to halve the response being measured. Low readings indicate greater potency in that assay, high ones weaker potency in that assay. `CC(C)=CCC1=C(O)[C@@]2(C(=O)c3ccccc3)C(=O)[C@](CC=C(C)C)(C[C@H](CC=C(C)C)C2(C)C)C1=O`: the IC50 in the experiment on HeLa (Homo sapiens, HeLa, 72 h) was determined as 2.9 µM; in the experiment with MCF7 (Homo sapiens, MCF7, 72 h), 5.2 µM; in the experiment with MIA PaCa-2 (Homo sapiens, MIA PaCa-2, 72 h) it was 2.4 µM.

For the molecule `CC(C)=CCC1=C(O)C2(CC=C(C)C)CC(CC=C(C)C)C(C)(C)C(C(=O)c3ccccc3)(C1=O)C2=O` (single isomer, unassigned; (+)), the half-maximal inhibitory concentration (IC50) was determined as 3.9 µM with HeLa (Homo sapiens, HeLa, 72 h); 6.5 µM in the experiment with MCF7 (Homo sapiens, MCF7, 72 h); 3.4 µM in the experiment on MIA PaCa-2 (Homo sapiens, MIA PaCa-2, 72 h).

For `CC(C)=CCC1=C(O)C2(C(=O)c3ccccc3)CC(CC=C(C)C)C(C)(C)C(CC=C(C)C)(C1=O)C2=O` (single isomer, unassigned; (+)), the IC50 in the experiment on HeLa (Homo sapiens, HeLa, 72 h) was determined as 10.1 µM; in the experiment on MCF7 (Homo sapiens, MCF7, 72 h), 18.9 µM; in the experiment on MIA PaCa-2 (Homo sapiens, MIA PaCa-2, 72 h) it was 11.3 µM.

As for `CC(C)=CC[C@H]1C[C@]2(CC=C(C)C)C(=O)[C@@](CC=C(C)C)(C(=O)C(C(=O)c3ccccc3)=C2O)C1(C)C` (stereo in doubt; (+)-4) [6-EPI-CLUSIANONE], the 50% inhibitory concentration (IC50) was determined as 5.8 µM in the experiment with HeLa (Homo sapiens, HeLa, 72 h); 8.3 µM in the experiment on MCF7 (Homo sapiens, MCF7, 72 h); 5.2 µM in the experiment on MIA PaCa-2 (Homo sapiens, MIA PaCa-2, 72 h).

For the molecule `CC(C)=CCC1=C(O)C2(CC=C(C)C)CC(CC=C(C)C)C(C)(C)C(C(=O)c3ccccc3)(C1=O)C2=O` (stereo in doubt; (-)-3), the IC50 was determined as 3.4 µM with HeLa (hela), 8 µM in the experiment with MCF7 (mcf7) and 3.5 µM with MIA PaCa-2 (mia paca-2).

With `CC(C)=CC[C@H]1C[C@]2(CC=C(C)C)C(=O)[C@@](CC=C(C)C)(C(=O)C(C(=O)c3ccccc3)=C2O)C1(C)C` (stereo in doubt; (-)-4) [6-EPI-CLUSIANONE], the IC50 with HeLa (hela) worked out at 3 µM; with MCF7 (mcf7), 5.7 µM; in the experiment with MIA PaCa-2 (mia paca-2), 3.8 µM.

As for `CC(C)=CCC1=C(O)C2(C(=O)c3ccccc3)CC(CC=C(C)C)C(C)(C)C(CC=C(C)C)(C1=O)C2=O` (stereo in doubt; (-)-5), the 50% inhibitory concentration (IC50) in the experiment with HeLa (hela) is 10.9 µM; with MCF7 (mcf7), 10.9 µM; in the experiment with MIA PaCa-2 (mia paca-2), 8.6 µM.

Regarding `Nc1ccn([C@@H]2O[C@H](CO)[C@@H](O)C2(F)F)c(=O)n1` [GEMCITABINE], the IC50 with HeLa (Homo sapiens, HeLa, 72 h) came to 0.05 µM; with MCF7 (Homo sapiens, MCF7, 72 h) it was 0.06 µM; in the experiment on MIA PaCa-2 (Homo sapiens, MIA PaCa-2, 72 h), 0.06 µM.

The values above are taken from ChEMBL document CHEMBL2086230, “Comparison of the cytotoxic effects of enantiopure PPAPs, including nemorosone and clusianone” (Bioorg Med Chem Lett, 2012).
